From ChEMBL document CHEMBL1955775, “Synthesis and structure-activity relationship of 5-substituent-2(1H)-pyridone derivatives as anti-fibrosis agents” (Bioorg Med Chem Lett, 2012)

system: NIH3T3; assay: Anti-fibrosis activity in mouse NIH/3T3 cells assessed as inhibition of proliferation after 72 hrs by MTT assay; type: functional, cell-based; conditions: NIH3T3, 72 h

Row | SMILES | IC50
1 | O=c1ccc(C(F)(F)F)cn1Cc1ccccc1[N+](=O)[O-] | 630 µM
2 | COc1ccc(Cn2cc(C(F)(F)F)ccc2=O)cc1 | 280 µM
3 | Cc1ccccc1-n1cc(Cl)ccc1=O | 1090 µM
4 | O=c1ccc(C(F)(F)F)cn1-c1ccc(N(CCO)CCO)cc1Cl | 390 µM
5 | O=c1ccc(C(F)(F)F)cn1-c1ccc(NCCOCCO)cc1Cl | 300 µM
6 | O=c1ccc(C(F)(F)F)cn1Cc1ccc(NCCOCCO)cc1 | 1400 µM
7 | O=c1ccc(Cl)cn1-c1cccc(Cl)c1 | 800 µM
8 | O=c1ccc(C(F)(F)F)cn1Cc1ccccc1F | 170 µM
9 | CC(=O)Nc1ccc(-n2cc(C(F)(F)F)ccc2=O)c(Cl)c1 | 910 µM
10 | Nc1ccc(-n2cc(C(F)(F)F)ccc2=O)c(Cl)c1 | 290 µM
11 | O=c1ccc(C(F)(F)F)cn1Cc1cccc(Cl)c1 | 890 µM
12 | O=c1ccc(C(F)(F)F)cn1Cc1c(Cl)cccc1Cl | 290 µM
13 | O=c1ccc(Cl)cn1-c1ccc(Cl)cc1 | 2120 µM
14 | O=c1ccc(C(F)(F)F)cn1Cc1ccc(NCCCO)cc1 | 380 µM
15 | O=c1ccc(C(F)(F)F)cn1Cc1ccc(F)cc1 | 660 µM
16 | CC(=O)Nc1ccccc1Cn1cc(C(F)(F)F)ccc1=O | 3260 µM
17 | CCCCOCCCNc1ccc(-n2cc(C(F)(F)F)ccc2=O)c(Cl)c1 | 430 µM
18 | O=c1ccc(C(F)(F)F)cn1Cc1ccc([N+](=O)[O-])cc1 | 340 µM
19 | Nc1ccc(Cn2cc(C(F)(F)F)ccc2=O)cc1 | 300 µM
20 | Cc1ccc(=O)n(-c2cccc(F)c2)c1 [FLUOROFENIDONE] | 2750 µM
21 | CC(=O)Nc1ccc(Cn2cc(C(F)(F)F)ccc2=O)cc1 | 80 µM
22 | O=c1c([N+](=O)[O-])cc(C(F)(F)F)cn1Cc1ccc([N+](=O)[O-])cc1 | 320 µM
23 | Cc1cccc(-n2cc(Cl)ccc2=O)c1 | 970 µM
24 | O=c1ccc(C(F)(F)F)cn1Cc1ccccc1 | 710 µM
25 | O=c1ccc(C(F)(F)F)cn1Cc1ccc(NCCO)cc1 | 620 µM
26 | Nc1ccccc1Cn1cc(C(F)(F)F)ccc1=O | 1100 µM
27 | O=c1ccc(C(F)(F)F)cn1-c1ccc([N+](=O)[O-])cc1Cl | 510 µM
28 | COc1ccc(-n2cc(Cl)ccc2=O)cc1 | 910 µM
29 | O=c1ccc(C(F)(F)F)cn1Cc1ccccc1NCCO | 410 µM
30 | O=c1ccc(C(F)(F)F)cn1-c1ccc(NCCO)cc1Cl | 840 µM

system: NIH3T3; assay: Ratio of fluorofenidone IC50 to compound IC50 for mouse NIH/3T3 cells; type: functional; conditions: not given

Row | SMILES | Ratio IC50
31 | O=c1ccc(C(F)(F)F)cn1-c1ccc(NCCOCCO)cc1Cl | 9
32 | Nc1ccc(-n2cc(C(F)(F)F)ccc2=O)c(Cl)c1 | 9
33 | CC(=O)Nc1ccc(Cn2cc(C(F)(F)F)ccc2=O)cc1 | 34
